This note sets out measurements from ChEMBL document CHEMBL1143095, “Discovery of [(3-bromo-7-cyano-2-naphthyl)(difluoro)methyl]phosphonic acid, a potent and orally active small molecule PTP1B inhibitor” (Bioorg Med Chem Lett, 2008).

In general, IC50 refers to the concentration that gives 50% inhibition. A word on the Cmax: it is the peak of the concentration-time curve. The term ED50 denotes the dose at which the effect has come halfway, by size or by number of responders. The bioavailability is dose-corrected exposure relative to a reference, in per cent. As usually defined, the half-life is how long it takes for the measured level to halve. The inhibition in vivo is the change of the read-out against control, counted positive when it falls. Broadly, the Ki is the dissociation constant of the complex between target and ligand, obtained from inhibition or displacement.

Data set [1] addresses T1, Receptor-type tyrosine-protein phosphatase C (Homo sapiens, UniProt P08575).
T1 sequence (P08575 whole entry): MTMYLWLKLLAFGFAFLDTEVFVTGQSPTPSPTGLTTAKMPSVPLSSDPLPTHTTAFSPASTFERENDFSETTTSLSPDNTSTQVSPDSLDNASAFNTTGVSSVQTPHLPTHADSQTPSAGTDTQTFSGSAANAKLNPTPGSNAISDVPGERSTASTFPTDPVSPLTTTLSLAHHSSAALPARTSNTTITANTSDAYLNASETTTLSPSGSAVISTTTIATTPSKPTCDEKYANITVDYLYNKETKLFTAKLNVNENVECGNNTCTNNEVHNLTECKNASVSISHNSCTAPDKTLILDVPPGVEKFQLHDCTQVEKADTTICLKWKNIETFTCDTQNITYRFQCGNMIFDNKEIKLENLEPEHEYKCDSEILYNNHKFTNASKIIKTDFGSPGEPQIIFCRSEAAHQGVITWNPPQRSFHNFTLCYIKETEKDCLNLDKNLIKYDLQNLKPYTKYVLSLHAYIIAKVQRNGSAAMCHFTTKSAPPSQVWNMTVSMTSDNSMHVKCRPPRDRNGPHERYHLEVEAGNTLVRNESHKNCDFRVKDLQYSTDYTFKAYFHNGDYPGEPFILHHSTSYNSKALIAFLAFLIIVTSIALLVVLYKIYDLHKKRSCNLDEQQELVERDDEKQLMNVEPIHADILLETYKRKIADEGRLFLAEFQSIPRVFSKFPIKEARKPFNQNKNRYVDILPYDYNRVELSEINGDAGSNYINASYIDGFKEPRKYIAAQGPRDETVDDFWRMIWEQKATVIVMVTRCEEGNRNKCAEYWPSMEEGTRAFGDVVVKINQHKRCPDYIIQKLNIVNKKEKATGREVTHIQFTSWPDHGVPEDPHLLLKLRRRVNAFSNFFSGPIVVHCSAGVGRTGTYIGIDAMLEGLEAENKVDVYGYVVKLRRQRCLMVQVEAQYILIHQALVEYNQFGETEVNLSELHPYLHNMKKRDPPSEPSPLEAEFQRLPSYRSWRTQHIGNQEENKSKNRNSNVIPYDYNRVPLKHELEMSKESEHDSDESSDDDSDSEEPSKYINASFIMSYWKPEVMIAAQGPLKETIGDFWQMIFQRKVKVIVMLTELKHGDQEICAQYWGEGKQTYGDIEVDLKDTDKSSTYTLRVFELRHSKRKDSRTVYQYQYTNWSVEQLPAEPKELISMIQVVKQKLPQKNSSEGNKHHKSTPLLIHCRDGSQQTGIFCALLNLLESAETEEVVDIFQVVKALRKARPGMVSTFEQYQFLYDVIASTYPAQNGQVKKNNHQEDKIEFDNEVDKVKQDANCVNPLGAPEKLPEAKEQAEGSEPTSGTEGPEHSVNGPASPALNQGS
Kind of data set: Inhibition of CD45 by fluorescein diphosphate assay.

For data set [2], the target named is T2, Tyrosine-protein phosphatase non-receptor type 1 (Homo sapiens, UniProt P18031).
T2 sequence (P18031 whole entry): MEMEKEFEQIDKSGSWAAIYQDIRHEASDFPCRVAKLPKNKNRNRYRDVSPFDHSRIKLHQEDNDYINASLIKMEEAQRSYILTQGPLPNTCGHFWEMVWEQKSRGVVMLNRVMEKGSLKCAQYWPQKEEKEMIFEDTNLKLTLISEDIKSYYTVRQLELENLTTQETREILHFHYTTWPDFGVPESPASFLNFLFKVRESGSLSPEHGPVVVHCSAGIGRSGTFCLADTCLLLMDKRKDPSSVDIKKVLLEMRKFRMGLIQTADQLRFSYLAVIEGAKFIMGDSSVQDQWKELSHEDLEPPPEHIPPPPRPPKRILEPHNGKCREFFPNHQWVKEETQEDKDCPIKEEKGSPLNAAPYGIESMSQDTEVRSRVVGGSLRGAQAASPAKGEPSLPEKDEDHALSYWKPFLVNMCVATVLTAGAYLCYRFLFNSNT
Kind of data set: Inhibition of PTP1B by fluorescein diphosphate assay.

The nature of data set [3]: Cmax in mouse plasma at 20 mg/kg, po after 2 hrs. In kind it is ADME, organism-based. On the set-up: dose 20 mg/kg, route oral.
The species named for data set [4] is Mus musculus. Put plainly: Inhibition of glucose excursion in DIO mouse glucose challenged 2 hrs before the oral glucose tolerance test. In kind it is functional.
A short description of data set [5]: Clearance in DIO mouse at 5 mg/kg, iv and 20 mg/kg, po. To be noted: in vivo. In kind it is ADME, organism-based.
The nature of data set [6]: Drug level in Squirrel monkey at 5 mg/kg, iv and 10 mg/kg, po after 24 hrs. In kind it is ADME, organism-based, Saimiri sciureus. To be noted: in vivo, read-out: Drug uptake.
A short description of data set [7]: Oral bioavailability in Squirrel monkey at 5 mg/kg, iv and 10 mg/kg, po. In kind it is ADME, organism-based, Saimiri sciureus. To be noted: in vivo.
Data set [8] can be described thus: Drug level in rat at 5 mg/kg, iv and 20 mg/kg, po after 24 hrs. In kind it is ADME, organism-based. To be noted: in vivo, read-out: Drug uptake.
A short description of data set [9]: Elimination half life in rat at 5 mg/kg, iv and 20 mg/kg, po. The format is ADME, organism-based. Conditions: in vivo.
Data set [10] in a line: Clearance in rat at 5 mg/kg, iv and 20 mg/kg, po. In kind it is ADME, organism-based. Conditions: in vivo.
The nature of data set [11]: Cmax in Squirrel monkey at 5 mg/kg, iv and 10 mg/kg, po. In kind it is ADME, organism-based, Saimiri sciureus. To be noted: in vivo.
Data set [12] is described as follows: Cmax in DIO mouse at 5 mg/kg, iv and 20 mg/kg, po. The format is ADME, organism-based. Conditions: in vivo.
The nature of data set [13]: Oral bioavailability in rat at 5 mg/kg, iv and 20 mg/kg, po. In kind it is ADME, organism-based. Conditions: in vivo.
The nature of data set [14]: Oral bioavailability in DIO mouse at 5 mg/kg, iv and 20 mg/kg, po. In kind it is ADME, organism-based. Conditions: in vivo.
Data set [15] relates to Mus musculus. Put plainly: Inhibition of glucose excursion in DIO mouse glucose challenged 2 hrs before the test at 3 mg/kg by oral glucose tolerance test. The format is functional.
The nature of data set [16]: Drug level in DIO mouse at 5 mg/kg, iv and 20 mg/kg, po after 24 hrs. In kind it is ADME, organism-based. To be noted: in vivo, read-out: Drug uptake.
A short description of data set [17]: Elimination half life in DIO mouse at 5 mg/kg, iv and 20 mg/kg, po. In kind it is ADME, organism-based. Conditions: in vivo.
The test system of data set [18] is Mus musculus. Kind of data set: Inhibition of glucose excursion in DIO mouse glucose challenged 2 hrs before the test at 1 mg/kg by oral glucose tolerance test. In kind it is functional.
The nature of data set [19]: Cmax in rat at 5 mg/kg, iv and 20 mg/kg, po. The format is ADME, organism-based. To be noted: in vivo.
The nature of data set [20]: Clearance in Squirrel monkey at 5 mg/kg, iv and 10 mg/kg, po. The format is ADME, organism-based, Saimiri sciureus. To be noted: in vivo.
Data set [21] can be described thus: Elimination half life in Squirrel monkey at 5 mg/kg, iv and 10 mg/kg, po. The format is ADME, organism-based, Saimiri sciureus. To be noted: in vivo.
In data set [22] the test system is Mus musculus. Kind of data set: Inhibition of glucose excursion in DIO mouse glucose challenged 2 hrs before the test at 10 mg/kg by oral glucose tolerance test. The format is functional.
A short description of data set [23]: Cmax in C57BL/6 mouse plasma at 10 mg/kg. On the set-up: dose 10 mg/kg. In kind it is ADME, organism-based.
A short description of data set [24]: Oral bioavailability in rat. In kind it is ADME, organism-based. To be noted: in vivo.
Data set [25] can be described thus: Cmax in rat plasma at 20 mg/kg. The format is ADME, organism-based. On the set-up: dose 20 mg/kg.
A short description of data set [26]: Elimination half life in rat plasma. In kind it is ADME, organism-based.

With `COCc1ccc2cc(Br)c(C(F)(F)P(=O)(O)O)cc2c1`, the IC50 in [1] was > 50 µM; in [2], 510 nM.

As to `N#CCc1ccc2cc(Br)c(C(F)(F)P(=O)(O)O)cc2c1`, the IC50 amounted to 26.8 µM in data set [1] and 90 nM in [2]. In [3], this compound returned a Cmax of 6 µM.

In the case of `CC(=O)NCc1ccc2cc(Br)c(C(F)(F)P(=O)(O)O)cc2c1`, the IC50 was > 50 µM in data set [1] and 1500 nM in data set [2].

For the compound `CS(=O)(=O)Cc1ccc2cc(Br)c(C(F)(F)P(=O)(O)O)cc2c1`, the IC50 in data set [1] was > 50 µM; in data set [2], 1300 nM.

Turning to `N#Cc1ccc2cc(Br)c(C(F)(F)P(=O)(O)O)cc2c1`, in data set [4], the ED50 is 0.8 mg/kg. Also, the figures for the clearance in data set [5], in [10] and in [20] were 0.71 mL/min/kg, 1.8 mL/h/kg and 1.2 mL/h/kg, respectively. For the same compound, the IC50 in data set [1] is > 50 µM. Moreover, the concentration at 24 h in data set [6] came out at 19 µM; in [8] it was 45.3 µM; in data set [16], 9 µM. Further, the bioavailability in [7] is 2%; in [13] it was 4%; in [14], 24%. Also, the half-life in data set [9] is > 1020 min; in [17], 360 min; in data set [21] it was > 1800 min. The Cmax in data set [11] worked out at 24 µM; in data set [12], 17.4 µM; in data set [19], 75.6 µM. In [15], the inhibition in vivo at 3 mg/kg is 80%. The same compound returned an inhibition in vivo at 1 mg/kg in data set [18] of 60%. This compound also returned an inhibition in vivo at 10 mg/kg in data set [22] of 100%.

In the case of `Cc1ccc2ccc(C(F)(F)P(=O)(O)O)cc2n1`, the IC50 is > 50 µM in data set [1] and > 50000 nM in data set [2].

`N#Cc1ccc2cc(C(F)(F)P(=O)(O)O)c(Br)cc2c1`: the half-maximal inhibitory concentration (IC50) was > 50 µM in data set [1] and 310 nM in data set [2].

With `NC(=O)c1ccc2cc(Br)c(C(F)(F)P(=O)(O)O)cc2n1`, the IC50 was > 50 µM in data set [1] and 250 nM in [2]. Besides, in data set [23], the Cmax was 300 nM.

Regarding `O=P(O)(O)C(F)(F)c1cc2ccccc2cc1Br`, the Ki in [2] stood at 179 µM.

On to `O=C(NCc1ccccc1)c1ccc2cc(Br)c(C(F)(F)P(=O)(O)O)cc2n1`, for which the values for the 50% inhibitory concentration (IC50) in data set [1] and in [2] were > 50 µM and 45 nM, respectively.

Regarding `O=C(Nc1cccc(F)c1)c1ccc2cc(Br)c(C(F)(F)P(=O)(O)O)cc2n1`, the half-maximal inhibitory concentration (IC50) was > 50 µM in data set [1] and 27 nM in data set [2].

Take `O=C(Nc1ccccc1)c1ccc2cc(Br)c(C(F)(F)P(=O)(O)O)cc2n1`: the half-inhibitory concentration (IC50) was > 50 µM in data set [1] and 60 nM in data set [2].

Take `O=P(O)(O)C(F)(F)c1cc2nc(/C=C/c3ccccc3)ccc2cc1Br`: the 50% inhibitory concentration (IC50) in [1] was > 50 µM; in [2], 160 nM.

Turning to `Cc1ccc2cc(Br)c(C(F)(F)P(=O)(O)O)cc2n1`, the concentration for half-maximal inhibition (IC50) in [1] is > 50 µM; in data set [2], 14000 nM. In addition, in data set [24], the bioavailability is 5%. In [25], this compound gave a peak concentration (Cmax) of 43.3 µM. Also, the half-life in data set [26] was > 480 min.

Consider `CNC(=O)c1ccc2cc(Br)c(C(F)(F)P(=O)(O)O)cc2n1`, for which the concentration for half-maximal inhibition (IC50) in data set [1] is > 50 µM; in data set [2] it was 1260 nM.

Take `Cc1ccc2cc(Br)c(C(F)(F)P(=O)(O)O)cc2c1`: the IC50 is > 50 µM in data set [1] and 330 nM in data set [2].

In the case of `CC(Cc1ccc(C(F)(F)P(=O)(O)O)cc1)(c1ccccc1)n1nnc2ccccc21` (centres undefined), the 50% inhibitory concentration (IC50) in [1] turned out to be 50 µM; in data set [2], 16 nM.

As for `O=C(O)c1cccc(/C=C/c2ccc3cc(Br)c(C(F)(F)P(=O)(O)O)cc3n2)c1`, the IC50 came to 37.8 µM in [1] and 7 nM in data set [2].

For `O=C(c1ccccc1)C(Cc1ccc(C(F)(F)P(=O)(O)O)c(Br)c1)c1ccccc1` (centres undefined), the half-maximal inhibitory concentration (IC50) in [1] is > 50 µM.
